Patent publication US12479847B2 (DANA-FARBER CANCER INSTITUTE, INC., priority 2019, dated 2025)
Read-outs that look alike come from different tables or passages of the source.

Tests used:
Experiment in all cases: KINOMEscan (ScanMAX) kinase profiling
Format in all cases: binding
[1] = target: T1, panel of 468 kinases (Homo sapiens, UniProt P00519, F317I); conditions: 1 μM, read-out: % control
T1 construct: purchased KINOMEscan (ScanMAX) service

[2] = target: T2, panel of 468 kinases (Homo sapiens, UniProt P08069); conditions: IGF1R; 1 μM; read-out: % control
T2 construct: purchased KINOMEscan (ScanMAX) service

[3] = target: T3, panel of 468 kinases (Homo sapiens, UniProt P10721, A829P); conditions: KIT(A829P); 1 μM; read-out: % control
T3 construct: purchased KINOMEscan (ScanMAX) service

[4] = target: T4, panel of 468 kinases (Homo sapiens, UniProt P10721, D816H); conditions: KIT(D816H); 1 μM; read-out: % control
T4 construct: purchased KINOMEscan (ScanMAX) service

[5] = target: T5, panel of 468 kinases (Homo sapiens, UniProt P15735); conditions: PHKG2; 1 μM; read-out: % control
T5 construct: purchased KINOMEscan (ScanMAX) service
T5 sequence (P15735 1-406): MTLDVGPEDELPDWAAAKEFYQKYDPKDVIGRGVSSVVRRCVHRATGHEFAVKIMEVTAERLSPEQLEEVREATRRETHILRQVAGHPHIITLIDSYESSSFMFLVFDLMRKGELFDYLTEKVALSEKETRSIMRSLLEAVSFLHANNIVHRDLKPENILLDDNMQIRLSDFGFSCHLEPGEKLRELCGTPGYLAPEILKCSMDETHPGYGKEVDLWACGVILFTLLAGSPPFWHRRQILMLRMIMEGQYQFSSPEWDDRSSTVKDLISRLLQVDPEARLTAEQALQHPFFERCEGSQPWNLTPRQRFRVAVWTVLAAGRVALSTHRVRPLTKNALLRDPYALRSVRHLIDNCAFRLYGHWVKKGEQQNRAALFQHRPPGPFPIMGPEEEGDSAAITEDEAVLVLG

[6] = target: T6, panel of 468 kinases (Homo sapiens, UniProt P30530); conditions: AXL; 1 μM; read-out: % control
T6 construct: purchased KINOMEscan (ScanMAX) service
T6 sequence (P30530 26-894): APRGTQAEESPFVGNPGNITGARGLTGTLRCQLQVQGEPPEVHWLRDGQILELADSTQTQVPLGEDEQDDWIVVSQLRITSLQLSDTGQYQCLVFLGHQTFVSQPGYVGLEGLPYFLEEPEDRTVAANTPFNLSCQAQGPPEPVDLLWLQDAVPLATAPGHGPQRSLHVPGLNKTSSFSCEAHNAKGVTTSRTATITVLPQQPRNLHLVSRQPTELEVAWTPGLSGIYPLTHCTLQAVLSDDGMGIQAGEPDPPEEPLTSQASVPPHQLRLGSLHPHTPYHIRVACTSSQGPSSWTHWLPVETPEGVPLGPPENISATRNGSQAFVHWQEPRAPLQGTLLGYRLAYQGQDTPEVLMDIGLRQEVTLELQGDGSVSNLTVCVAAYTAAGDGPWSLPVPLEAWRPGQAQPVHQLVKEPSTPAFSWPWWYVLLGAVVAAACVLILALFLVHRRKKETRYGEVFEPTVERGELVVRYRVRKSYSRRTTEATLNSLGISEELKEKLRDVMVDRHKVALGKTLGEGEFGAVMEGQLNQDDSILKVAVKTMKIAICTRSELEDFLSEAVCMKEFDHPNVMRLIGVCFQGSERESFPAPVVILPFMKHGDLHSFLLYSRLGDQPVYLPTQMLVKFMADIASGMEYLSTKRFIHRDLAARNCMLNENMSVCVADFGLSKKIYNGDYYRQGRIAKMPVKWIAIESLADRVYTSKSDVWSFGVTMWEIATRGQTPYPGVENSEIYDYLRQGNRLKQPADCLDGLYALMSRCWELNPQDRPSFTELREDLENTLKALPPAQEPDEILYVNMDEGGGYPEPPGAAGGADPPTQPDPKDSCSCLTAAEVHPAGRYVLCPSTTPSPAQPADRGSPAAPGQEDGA

[7] = target: T7, panel of 468 kinases (Homo sapiens, UniProt Q02156); conditions: PRKCE; 1 μM; read-out: % control
T7 construct: purchased KINOMEscan (ScanMAX) service
T7 sequence (Q02156 1-737): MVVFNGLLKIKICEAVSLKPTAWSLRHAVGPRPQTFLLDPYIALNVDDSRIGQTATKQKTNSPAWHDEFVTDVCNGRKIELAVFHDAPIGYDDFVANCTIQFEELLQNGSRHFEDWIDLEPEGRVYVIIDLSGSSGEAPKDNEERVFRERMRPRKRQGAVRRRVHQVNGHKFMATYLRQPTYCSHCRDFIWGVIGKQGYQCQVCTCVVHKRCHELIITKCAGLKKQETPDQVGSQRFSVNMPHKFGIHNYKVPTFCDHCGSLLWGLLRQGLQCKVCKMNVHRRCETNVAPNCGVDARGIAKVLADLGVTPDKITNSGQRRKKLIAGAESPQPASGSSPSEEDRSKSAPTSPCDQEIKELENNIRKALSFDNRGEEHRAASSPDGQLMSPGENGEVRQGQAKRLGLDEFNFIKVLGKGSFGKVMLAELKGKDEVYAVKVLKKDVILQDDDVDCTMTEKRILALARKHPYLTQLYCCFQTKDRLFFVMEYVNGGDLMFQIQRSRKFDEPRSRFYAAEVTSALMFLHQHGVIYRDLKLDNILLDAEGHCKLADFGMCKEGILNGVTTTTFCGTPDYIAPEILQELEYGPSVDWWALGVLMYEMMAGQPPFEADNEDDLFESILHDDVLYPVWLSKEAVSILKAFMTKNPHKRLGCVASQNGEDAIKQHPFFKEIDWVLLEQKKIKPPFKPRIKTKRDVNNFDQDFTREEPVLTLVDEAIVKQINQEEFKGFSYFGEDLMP

[8] = target: T8, panel of 468 kinases (Homo sapiens, UniProt Q05655); conditions: PRKCD; 1 μM; read-out: % control
T8 construct: purchased KINOMEscan (ScanMAX) service

[9] = target: T9, panel of 468 kinases (Homo sapiens, UniProt Q15569); conditions: TESK1; 1 μM; read-out: % control
T9 construct: purchased KINOMEscan (ScanMAX) service
T9 sequence (Q15569 whole entry): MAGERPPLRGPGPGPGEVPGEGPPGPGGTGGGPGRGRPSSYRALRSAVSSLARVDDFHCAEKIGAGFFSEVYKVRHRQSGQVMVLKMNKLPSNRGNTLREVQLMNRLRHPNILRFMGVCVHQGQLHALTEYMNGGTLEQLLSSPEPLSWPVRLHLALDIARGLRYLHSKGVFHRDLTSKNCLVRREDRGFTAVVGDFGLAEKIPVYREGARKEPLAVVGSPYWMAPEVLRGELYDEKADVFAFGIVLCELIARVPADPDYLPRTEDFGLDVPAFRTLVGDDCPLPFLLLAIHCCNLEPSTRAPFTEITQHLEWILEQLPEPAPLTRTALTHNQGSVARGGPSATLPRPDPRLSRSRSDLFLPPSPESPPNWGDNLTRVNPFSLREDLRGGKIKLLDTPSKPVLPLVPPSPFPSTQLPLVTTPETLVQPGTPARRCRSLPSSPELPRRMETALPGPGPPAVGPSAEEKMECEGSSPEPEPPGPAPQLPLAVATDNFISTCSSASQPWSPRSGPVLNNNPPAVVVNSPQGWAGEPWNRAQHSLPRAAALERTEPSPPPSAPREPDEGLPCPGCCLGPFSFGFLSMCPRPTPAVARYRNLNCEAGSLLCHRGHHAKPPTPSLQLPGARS

T3 sequence (P10721 26-976 A829P): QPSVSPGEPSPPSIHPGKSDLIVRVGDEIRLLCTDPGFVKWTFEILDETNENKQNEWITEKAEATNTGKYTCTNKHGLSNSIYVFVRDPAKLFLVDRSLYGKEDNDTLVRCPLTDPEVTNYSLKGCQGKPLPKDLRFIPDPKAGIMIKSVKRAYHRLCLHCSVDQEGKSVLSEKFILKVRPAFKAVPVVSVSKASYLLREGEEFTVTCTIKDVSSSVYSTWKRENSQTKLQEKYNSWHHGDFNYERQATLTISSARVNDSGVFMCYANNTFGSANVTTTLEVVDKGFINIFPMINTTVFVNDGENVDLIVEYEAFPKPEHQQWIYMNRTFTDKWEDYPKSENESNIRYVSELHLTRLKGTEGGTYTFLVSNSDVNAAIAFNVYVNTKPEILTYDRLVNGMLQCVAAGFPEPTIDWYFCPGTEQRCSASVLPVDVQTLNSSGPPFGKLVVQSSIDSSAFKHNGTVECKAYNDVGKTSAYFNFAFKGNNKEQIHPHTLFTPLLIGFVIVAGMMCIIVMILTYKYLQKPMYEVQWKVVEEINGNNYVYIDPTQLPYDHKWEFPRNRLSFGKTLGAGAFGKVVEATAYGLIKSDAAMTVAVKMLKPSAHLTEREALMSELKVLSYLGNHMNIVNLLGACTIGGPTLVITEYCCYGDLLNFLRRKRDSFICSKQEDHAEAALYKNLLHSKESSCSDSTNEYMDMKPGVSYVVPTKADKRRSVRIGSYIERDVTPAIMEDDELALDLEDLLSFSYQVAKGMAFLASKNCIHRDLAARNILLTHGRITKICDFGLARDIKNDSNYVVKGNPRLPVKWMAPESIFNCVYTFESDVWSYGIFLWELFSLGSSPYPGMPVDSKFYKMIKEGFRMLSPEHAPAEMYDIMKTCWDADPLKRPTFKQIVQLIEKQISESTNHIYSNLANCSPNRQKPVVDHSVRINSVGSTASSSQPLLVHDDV
T2 sequence (P08069 31-1367): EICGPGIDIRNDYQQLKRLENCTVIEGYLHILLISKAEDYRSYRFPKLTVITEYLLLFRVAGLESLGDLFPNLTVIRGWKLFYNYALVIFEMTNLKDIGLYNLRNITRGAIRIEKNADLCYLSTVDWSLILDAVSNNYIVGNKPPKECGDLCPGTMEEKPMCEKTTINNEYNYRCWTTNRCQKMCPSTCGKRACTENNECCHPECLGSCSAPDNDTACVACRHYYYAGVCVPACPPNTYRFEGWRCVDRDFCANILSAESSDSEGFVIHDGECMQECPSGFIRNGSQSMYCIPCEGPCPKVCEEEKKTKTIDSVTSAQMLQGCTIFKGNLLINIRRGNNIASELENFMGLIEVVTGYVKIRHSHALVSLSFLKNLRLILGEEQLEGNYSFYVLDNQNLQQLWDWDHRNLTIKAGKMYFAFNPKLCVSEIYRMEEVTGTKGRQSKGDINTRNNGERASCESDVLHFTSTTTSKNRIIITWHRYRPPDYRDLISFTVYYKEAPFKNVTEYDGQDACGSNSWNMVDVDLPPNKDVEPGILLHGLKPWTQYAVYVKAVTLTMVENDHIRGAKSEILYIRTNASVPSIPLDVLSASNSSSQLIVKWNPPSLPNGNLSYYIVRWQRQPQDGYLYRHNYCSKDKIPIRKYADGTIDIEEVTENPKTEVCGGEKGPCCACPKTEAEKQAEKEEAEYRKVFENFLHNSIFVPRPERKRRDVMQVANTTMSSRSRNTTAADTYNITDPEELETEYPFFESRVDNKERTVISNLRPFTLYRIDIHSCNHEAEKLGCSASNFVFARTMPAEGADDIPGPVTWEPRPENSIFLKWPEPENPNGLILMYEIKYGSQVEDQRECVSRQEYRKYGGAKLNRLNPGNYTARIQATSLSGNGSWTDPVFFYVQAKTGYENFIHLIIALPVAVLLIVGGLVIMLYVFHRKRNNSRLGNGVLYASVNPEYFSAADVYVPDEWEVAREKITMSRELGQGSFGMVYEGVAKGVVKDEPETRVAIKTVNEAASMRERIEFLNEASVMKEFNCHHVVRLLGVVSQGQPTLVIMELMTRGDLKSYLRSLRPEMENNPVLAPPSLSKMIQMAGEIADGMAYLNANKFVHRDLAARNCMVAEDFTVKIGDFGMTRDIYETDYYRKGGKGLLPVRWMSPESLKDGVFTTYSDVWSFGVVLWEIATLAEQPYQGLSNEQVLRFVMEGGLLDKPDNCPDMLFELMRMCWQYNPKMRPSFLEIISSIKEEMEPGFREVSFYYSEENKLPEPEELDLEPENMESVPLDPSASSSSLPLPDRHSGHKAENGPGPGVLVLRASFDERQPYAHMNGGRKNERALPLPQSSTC
T8 sequence (Q05655 whole entry): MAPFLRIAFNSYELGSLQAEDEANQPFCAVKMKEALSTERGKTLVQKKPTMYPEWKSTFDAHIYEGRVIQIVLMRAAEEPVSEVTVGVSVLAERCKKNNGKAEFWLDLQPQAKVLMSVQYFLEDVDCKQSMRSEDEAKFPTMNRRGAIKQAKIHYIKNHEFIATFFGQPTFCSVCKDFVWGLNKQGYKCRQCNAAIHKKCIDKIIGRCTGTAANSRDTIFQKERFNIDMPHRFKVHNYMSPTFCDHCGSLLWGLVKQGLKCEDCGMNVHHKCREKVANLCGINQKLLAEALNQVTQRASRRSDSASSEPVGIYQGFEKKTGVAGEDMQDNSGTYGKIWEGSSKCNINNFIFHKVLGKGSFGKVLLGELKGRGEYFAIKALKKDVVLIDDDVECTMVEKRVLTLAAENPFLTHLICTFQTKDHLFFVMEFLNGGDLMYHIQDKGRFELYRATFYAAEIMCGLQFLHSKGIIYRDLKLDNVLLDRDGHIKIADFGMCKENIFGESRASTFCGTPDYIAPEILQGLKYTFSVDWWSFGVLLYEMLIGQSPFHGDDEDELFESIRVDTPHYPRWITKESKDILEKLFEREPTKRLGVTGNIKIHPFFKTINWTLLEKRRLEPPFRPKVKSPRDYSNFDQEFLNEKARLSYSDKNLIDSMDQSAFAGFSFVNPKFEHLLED
T1 sequence (P00519 whole entry F317I): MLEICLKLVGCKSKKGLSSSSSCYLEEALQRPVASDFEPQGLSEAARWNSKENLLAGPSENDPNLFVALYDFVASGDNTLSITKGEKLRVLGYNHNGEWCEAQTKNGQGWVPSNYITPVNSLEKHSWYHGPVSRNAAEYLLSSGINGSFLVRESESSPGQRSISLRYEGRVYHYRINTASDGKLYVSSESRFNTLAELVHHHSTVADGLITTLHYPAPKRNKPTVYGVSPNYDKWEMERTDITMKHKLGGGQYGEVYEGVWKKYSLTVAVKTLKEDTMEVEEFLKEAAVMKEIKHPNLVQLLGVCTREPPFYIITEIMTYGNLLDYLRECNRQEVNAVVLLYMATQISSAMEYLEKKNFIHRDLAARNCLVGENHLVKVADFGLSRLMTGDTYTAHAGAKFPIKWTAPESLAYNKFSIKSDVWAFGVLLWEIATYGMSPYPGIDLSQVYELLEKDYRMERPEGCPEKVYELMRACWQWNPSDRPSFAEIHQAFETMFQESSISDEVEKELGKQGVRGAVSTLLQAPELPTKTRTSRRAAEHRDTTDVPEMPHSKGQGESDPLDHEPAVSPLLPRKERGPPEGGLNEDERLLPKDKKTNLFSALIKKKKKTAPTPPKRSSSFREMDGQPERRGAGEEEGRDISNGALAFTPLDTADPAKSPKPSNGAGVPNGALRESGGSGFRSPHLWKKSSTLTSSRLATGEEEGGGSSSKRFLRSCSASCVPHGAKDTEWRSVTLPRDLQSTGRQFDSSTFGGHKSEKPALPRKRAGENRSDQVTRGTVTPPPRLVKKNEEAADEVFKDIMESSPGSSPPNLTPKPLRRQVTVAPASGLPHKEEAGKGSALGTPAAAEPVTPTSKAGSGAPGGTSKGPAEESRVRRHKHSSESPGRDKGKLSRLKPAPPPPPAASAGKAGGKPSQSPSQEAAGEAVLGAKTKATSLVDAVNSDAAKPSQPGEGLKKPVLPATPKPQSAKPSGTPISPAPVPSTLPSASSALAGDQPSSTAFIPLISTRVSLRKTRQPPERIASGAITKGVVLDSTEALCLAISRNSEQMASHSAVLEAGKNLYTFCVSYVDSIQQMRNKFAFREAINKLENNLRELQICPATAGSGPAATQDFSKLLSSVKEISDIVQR
T4 sequence (P10721 26-976 D816H): as the sequence (P10721 26-976 A829P) above, with D791H, P804A counted along it

SMILES: CNc1nc(Nc2ccc(S(=O)(=O)N3CCC(N4CCOCC4)CC3)cc2OC)nc2[nH]cc(Cl)c12 [Compound 12, 5-chloro-N2-(2-methoxy-4-((4-morpholinopiperidin-1-yl)sulfonyl)phenyl)-N4-methyl-7H-pyrrolo[2,3-d]pyrimidine-2,4-diamine]
- remaining binding at 1 µM ([1]; ABL1(F317I)-nonphosphorylated): 100%
- remaining binding at 1 µM ([1]; ABL1(F317I)-phosphorylated): 54%
- remaining binding at 1 µM [2]: 100%
- remaining binding at 1 µM [3]: 76%
- remaining binding at 1 µM [4]: 100%
- remaining binding at 1 µM [5]: 11%
- remaining binding at 1 µM [6]: 100%
- remaining binding at 1 µM [7]: 62%
- remaining binding at 1 µM [8]: 94%
- remaining binding at 1 µM [9]: 100%

SMILES: CNc1nc(Nc2ccc(P3(=O)CCN(C4CCOCC4)CC3)cc2OC)nc2[nH]cc(Cl)c12 [Compound 77, 4-(4-((5-chloro-4-(methylamino)-7H-pyrrolo[2,3-d]pyrimidin-2-yl)amino)-3-methoxyphenyl)-1-(tetrahydro-2H-pyran-4-yl)-1,4-azaphosphinane 4-oxide]
- remaining binding at 1 µM ([1]; ABL1(F317I)-nonphosphorylated): 100%
- remaining binding at 1 µM ([1]; ABL1(F317I)-phosphorylated): 51%
- remaining binding at 1 µM [2]: 100%
- remaining binding at 1 µM [3]: 78%
- remaining binding at 1 µM [4]: 93%
- remaining binding at 1 µM [5]: 1.9%
- remaining binding at 1 µM [6]: 93%
- remaining binding at 1 µM [7]: 87%
- remaining binding at 1 µM [8]: 95%
- remaining binding at 1 µM [9]: 100%

SMILES: CNc1nc(Nc2ccc(C(=O)N3CCC(N4CCOCC4)CC3)c3c2OCO3)nc2[nH]cc(Cl)c12 [Compound 75, (7-((5-chloro-4-(methylamino)-7H-pyrrolo[2,3-d]pyrimidin-2-yl)amino)benzo[d][1,3]dioxol-4-yl)(4-morpholinopiperidin-1-yl)methanone]
- remaining binding at 1 µM ([1]; ABL1(F317I)-nonphosphorylated): 100%
- remaining binding at 1 µM ([1]; ABL1(F317I)-phosphorylated): 83%
- remaining binding at 1 µM [2]: 89%
- remaining binding at 1 µM [3]: 50%
- remaining binding at 1 µM [4]: 99%
- remaining binding at 1 µM [5]: 5.3%
- remaining binding at 1 µM [6]: 63%
- remaining binding at 1 µM [7]: 73%
- remaining binding at 1 µM [8]: 89%
- remaining binding at 1 µM [9]: 100%
